Source: US20060280787A1, “Pharmaceutical formulation of the tubulin inhibitor indibulin for oral administration with improved pharmacokinetic properties, and process for the manufacture thereof” (priority 2005, published 2006)

Key:
[1] = Tolerability in preclinical experiments in rodents; format: in vivo; settings: highly effective doses
Description: (§1) In vitro, Indibulin exerts significant antitumor activity against a variety of malignancies (e.g., prostate, brain, breast, pancreas, and colon). […] Based on its mechanism of action, it is expected to target all types of solid tumors. […] Another advantage for further development is its easy synthesis, in contrast to other tubulin-inhibitory compounds.

[2] = Bioavailability of pure Indibulin; format: in vivo
Description: (§2) Indibulin is obtained by chemical synthesis as a white crystalline powder. Its solubility in hydrophilic solvents is poor. […] Due to these properties, the bioavailability of pure Indibulin is very low, as is Indibulin's bioavailability in common pharmaceutical dosage forms, e.g., powder, granula, tablets or capsules.

[3] = system: microtubules; assay: Polymerization of microtubules in a cell-free system; format: biochemical
Description: (§3) Indibulin is a synthetic small molecule tubulin inhibitor with significant antitumor activity in vitro and in vivo. […] Furthermore, the molecule selectively blocks cell cycle progression at metaphase.

[4] = Solubility of Indibulin in solvents; format: physicochemical
Description: as §2
However, these organic solvents cannot be used for application in humans due to their toxicity.

[5] = Neurological symptoms in animal experiments; format: in vivo, animals
Description: as §1

[6] = system: microtubules in tumor cells; assay: Polymerization of microtubules in tumor cells; format: cell-based
Description: as §3

## O=C(Nc1ccncc1)C(=O)c1cn(Cc2ccc(Cl)cc2)c2ccccc12 [Indibulin, N-(pyridine-4-yl)-[1-(4-chlorobenzyl)-indole-3-yl]glyoxylic acid amide]
[1]
  tolerability: very well tolerated
[2]
  bioavailability: very low
[3]
  polymerization of microtubules: inhibits polymerization of microtubules
[4]; dimethylformamide, dimethylsulfoxide and N-methylpyrrolidone
  solubility in organic solvents: sufficient solubility
[4]; roughly >50% w/v acetic acid or lactic acid
  solubility in highly concentrated organic acids: relatively good solvents
[4]; water, methanol, ethanol or 2-propanol
  solubility in hydrophilic solvents: practically insoluble
[5]
  neurological symptoms: No neurological symptoms
[6]
  polymerization of microtubules: inhibits polymerization of microtubules
